# Patent US10059655B2, “Lipids and lipid compositions for the delivery of active agents” (priority 2013, dated 2018)
# Test: Measurement of mRNA encapsulation in lipid nanoparticles (Quant-iT Ribogreen)
# Type: physicochemical
# Conditions: Leptin mRNA in LNP
# Protocol: All equipment and disposable supplies are certified free of RNase activity by the manufacturer or rendered RNase free by use of the RNaseZap reagent (LifeTechnologies). mRNA is encapsulated at a cationic lipid amine to mRNA phosphate (N:P) molar ratio of 4:1. Lipids (cationic lipid, DSPC, cholesterol and lipidated PEG or stealth lipid) are dissolved in ethanol. The molar ratios are 40:10:38:2, respectively. The mixture is sonicated briefly, then gently agitated for 5 minutes and then maintained at 37° C. until use. mRNA is exchanged into citrate buffer pH 5.8-6.0 by use of Amicon Ultra-15 centrifugal concentrators, and the final concentration is adjusted to 0.5 mg/ml and held at 37° C. until use. An equal volume of lipids in ethanol, mRNA in citrate buffer, and citrate buffer alone are drawn into disposable syringes.
# Tubing leading from syringes containing lipids and mRNA are attached to the T junction, and tubing leading from the syringe containing citrate buffer alone is paired with the tubing exiting the T-junction over a collection vessel containing a stir bar on an active stir plate. Syringes are placed in a syringe pump set to expel contents at a flow rate of 1 ml per minute. The pump is activated, and the collected mRNA in lipid nanoparticles is transferred to SnakeSkin dialysis tubing (10,000 MWCO, Thermo Scientific). Material is dialyzed against RNAse- and pyrogen-free 1× phosphate buffered saline overnight at 4° C.
# Percent encapsulation of mRNA in lipid nanoparticles is determined using the Quant-iT Ribogreen RNA Assay kit (Life Technologies). The LNP-mRNA suspension is assayed in buffer (mRNA outside the particle), and buffer plus Triton X-100 detergent (total mRNA). The difference calculated is the mRNA inside the particle. Prepare a 1000 ng/mL stock from the RNA provided in the kit and use this to generate a standard curve (0 ng/ml, 15.63-1000 ng/ml) in TE and TE+0.75% Triton X-100. Prepare LNP-mRNA samples in TE buffer and TE buffer+0.75% Triton X-100 with appropriate dilution so that reading is in the range of standard curve (400-2,000 fold). In a 384-well plate (Costar non-treated #3573) add 0.04 ml of standard (in duplicate) or sample (in triplicate) per well. Dilute Ribogreen reagent 240-fold in TE buffer and add 0.06 ml per well. Mix contents of wells and measure fluorescence (excitation=480 nm, emission=520 nm). Subtract background values (no RNA) from standard and test sample values and determine the concentrations of RNA in the samples using the standard curves. Determine the percent encapsulation of the sample by dividing the difference in concentrations between sample+triton and sample in buffer alone by the sample+triton concentration.
row,Structure (SMILES),% encapsulation mRNA Leptin
1,"CCCCC/C=C\C/C=C\CCCCCCCC(=O)OCC(COC(=O)CCCCCCC/C=C\C/C=C\CCCCC)COC(=O)CCN1CCN(C)CC1 [Example 2, (9Z,9′Z,12Z,12′Z)-2-(((3-(4-methylpiperazin-1-yl)propanoyl)oxy)methyl)propane-1,3-diyl bis(octadeca-9,12-dienoate)]",70.5%
2,"CCCCC/C=C\C/C=C\CCCCCCCC(=O)OCC(COC(=O)CCCCCCC/C=C\C/C=C\CCCCC)COC(=O)CCCN1CCCC1 [Example 3, (9Z,9′Z,12Z,12′Z)-2-(((4-(pyrrolidin-1-yl)butanoyl)oxy)methyl)propane-1,3-diyl bis(octadeca-9,12-dienoate)]",32.5%
3,"CCCCC/C=C\C/C=C\CCCCCCCC(=O)OCC(COC(=O)CCCCCCC/C=C\C/C=C\CCCCC)COC(=O)CCN1CCOCC1 [Example 10, (9Z,9′Z,12Z,12′Z)-2-(((3-morpholinopropanoyl)oxy)methyl)propane-1,3-diyl bis(octadeca-9,12-dienoate)]",1.9%
4,"CCCCC/C=C\C/C=C\CCCCCCCC(=O)OCC(COC(=O)CCCCCCC/C=C\C/C=C\CCCCC)COC(=O)CCCN(C)C [Example 11, (9Z,9′Z,12Z,12′Z)-2-(((4-(dimethylamino)butanoyl)oxy)methyl)propane-1,3-diyl bis(octadeca-9,12-dienoate)]",45.4%
5,"CCCCC/C=C\C/C=C\CCCCCCCC(=O)OCC(COC(=O)CCCCCC(CCCCCC)CCCCCC)COC(=O)OCCCN(CC)CC (centres unmarked) [Example 23, (9Z,12Z)-3-(((3-(diethylamino)propoxy)carbonyl)oxy)-2-(((7-hexyltridecanoyl)oxy)methyl)propyl octadeca-9,12-dienoate]",82.0%
6,"CCCCC/C=C\C/C=C\CCCCCCCC(=O)OCC(COC(=O)CCC(OCCCCCCCC)OCCCCCCCC)COC(=O)C1CCN(C(C)C)CC1 (centres unmarked) [Example 33, 3-((4,4-bis(octyloxy)butanoyl)oxy)-2-(((9Z,12Z)-octadeca-9,12-dienoyloxy)methyl)propyl 1-isopropylpiperidine-4-carboxylate]",97.4%
7,"CCCCC/C=C\C/C=C\CCCCCCCC(=O)OCC(COC(=O)CCC(OCCCCCCCC)OCCCCCCCC)COC(=O)[C@@H]1CCCN1C (stereo partly drawn) [Example 37, (2S)-3-((4,4-bis(octyloxy)butanoyl)oxy)-2-(((9Z,12Z)-octadeca-9,12-dienoyloxy)methyl)propyl 1-methylpyrrolidine-2-carboxylate]",14.3%
8,"CCCCC/C=C\C/C=C\CCCCCCCC(=O)OCC(COC(=O)CCC(OCCCCCCCC)OCCCCCCCC)COC(=O)C1CCN(C)CC1 (centres unmarked) [Example 41, 3-((4,4-bis(octyloxy)butanoyl)oxy)-2-(((9Z,12Z)-octadeca-9,12-dienoyloxy)methyl)propyl 1-methylpiperidine-4-carboxylate]",97.5%
9,"CCCCC/C=C\C/C=C\CCCCCCCC(=O)OCC(COC(=O)CCC(OCCCCCCCC)OCCCCCCCC)COC(=O)C1CCCN(C)C1 (centres unmarked) [Example 42, 3-((4,4-bis(octyloxy)butanoyl)oxy)-2-(((9Z,12Z)-octadeca-9,12-dienoyloxy)methyl)propyl 1-methylpiperidine-3-carboxylate]",90.3%
10,"CCCCC/C=C\C/C=C\CCCCCCCC(=O)OCC(COC(=O)CCC(OCCCCCCCC)OCCCCCCCC)COC(=O)OCCCN1CCCC1 (centres unmarked) [Example 45, (9Z,12Z)-3-((4,4-bis(octyloxy)butanoyl)oxy)-2-((((3-(pyrrolidin-1-yl)propoxy)carbonyl)oxy)methyl)propyl octadeca-9,12-dienoate]",84.4%
11,"CCCCC/C=C\C/C=C\CCCCCCCC(=O)OCC(COC(=O)CCC(OCCCCCCCC)OCCCCCCCC)COC(=O)OC1CN(C)C1 (centres unmarked) [Example 49, (9Z,12Z)-3-((4,4-bis(octyloxy)butanoyl)oxy)-2-(((((1-methylazetidin-3-yl)oxy)carbonyl)oxy)methyl)propyl octadeca-9,12-dienoate]",82.8%
12,"CCCCC/C=C\C/C=C\CCCCCCCC(=O)OCC(COC(=O)CCC(OCCCCCCCC)OCCCCCCCC)COC(=O)OCC1CCN(C)CC1 (centres unmarked) [Example 51, (9Z,12Z)-3-((4,4-bis(octyloxy)butanoyl)oxy)-2-(((((1-methylpiperidin-4-yl)methoxy)carbonyl)oxy)methyl)propyl octadeca-9,12-dienoate]",82.3%
13,"CCCCC/C=C\C/C=C\CCCCCCCC(=O)OCC(COC(=O)CCC(OCCCCCCCC)OCCCCCCCC)COC(=O)OC1CC(C)(C)N(C)C(C)(C)C1 (centres unmarked) [Example 52, (9Z,12Z)-3-((4,4-bis(octyloxy)butanoyl)oxy)-2-(((((1,2,2,6,6-pentamethylpiperidin-4-yl)oxy)carbonyl)oxy)methyl)propyl octadeca-9,12-dienoate]",32.2%
14,"CCCCC/C=C\C/C=C\CCCCCCCC(=O)OCC(COC(=O)CCC(OCCCCCCCC)OCCCCCCCC)COC(=O)NCCCN(C)C (centres unmarked) [Example 53, (9Z,12Z)-3-((4,4-bis(octyloxy)butanoyl)oxy)-2-((((3-(dimethylamino)propyl)carbamoyl)oxy)methyl)propyl octadeca-9,12-dienoate]",93.5%
15,"CCCCCCCCOC(CCC(=O)OCC(COC(=O)CCC(OCCCCCCCC)OCCCCCCCC)COC(=O)C1CCN(C)C1)OCCCCCCCC (centres unmarked) [Example 57, 2-(((1-methylpyrrolidine-3-carbonyl)oxy)methyl)propane-1,3-diyl bis(4,4-bis(octyloxy)butanoate)]",95.2%

# Results, then the compound that gave them:
row,% encapsulation mRNA Leptin,Structure (SMILES)
1,80.8%,"CCCCC/C=C\C/C=C\CCCCCCCC(=O)OCC(COC(=O)CCCCC(OCCCCCCCC)OCCCCCCCC)COC(=O)OCCCN(CC)CC (centres unmarked) [Example 27, (9Z,12Z)-3-((6,6-bis(octyloxy)hexanoyl)oxy)-2-((((3-(diethylamino)propoxy)carbonyl)oxy)methyl)propyl octadeca-9,12-dienoate]"
2,9.6%,"CCCCC/C=C\C/C=C\CCCCCCCC(=O)OCC(COC(=O)CCC(OCCCCCCCC)OCCCCCCCC)COC(=O)[C@H]1CCCN1C (stereo partly drawn) [Example 38, (2R)-3-((4,4-bis(octyloxy)butanoyl)oxy)-2-(((9Z,12Z)-octadeca-9,12-dienoyloxy)methyl)propyl 1-methylpyrrolidine-2-carboxylate]"
3,10.0%,"CCCCC/C=C\C/C=C\CCCCCCCC(=O)OCC(COC(=O)CCC(OCCCCCCCC)OCCCCCCCC)COC(=O)C1CN(C)CCO1 (centres unmarked) [Example 39, 3-((4,4-bis(octyloxy)butanoyl)oxy)-2-(((9Z,12Z)-octadeca-9,12-dienoyloxy)methyl)propyl 4-methylmorpholine-2-carboxylate]"
4,22.4%,"CCCCC/C=C\C/C=C\CCCCCCCC(=O)OCC(COC(=O)CCC(OCCCCCCCC)OCCCCCCCC)COC(=O)c1ccc(CN(CC)CC)cc1 (centres unmarked) [Example 44, 3-((4,4-bis(octyloxy)butanoyl)oxy)-2-(((9Z,12Z)-octadeca-9,12-dienoyloxy)methyl)propyl 4-((diethylamino)methyl)benzoate]"
5,63.5%,"CCCCC/C=C\C/C=C\CCCCCCCC(=O)OCC(COC(=O)CCC(OCCCCCCCC)OCCCCCCCC)COC(=O)OCCCN1CCN(C)CC1 (centres unmarked) [Example 46, (9Z,12Z)-3-((4,4-bis(octyloxy)butanoyl)oxy)-2-((((3-(4-methylpiperazin-1-yl)propoxy)carbonyl)oxy)methyl)propyl octadeca-9,12-dienoate]"
6,90.4%,"CCCCC/C=C\C/C=C\CCCCCCCC(=O)OCC(COC(=O)CCC(OCCCCCCCC)OCCCCCCCC)COC(=O)OC1CCN(C)C1 (centres unmarked) [Example 47, (9Z,12Z)-3-((4,4-bis(octyloxy)butanoyl)oxy)-2-(((((1-methylpyrrolidin-3-yl)oxy)carbonyl)oxy)methyl)propyl octadeca-9,12-dienoate]"
7,83.9%,"CCCCC/C=C\C/C=C\CCCCCCCC(=O)OCC(COC(=O)CCC(OCCCCCCCC)OCCCCCCCC)COC(=O)OC1CCN(CC)CC1 (centres unmarked) [Example 50, (9Z,12Z)-3-((4,4-bis(octyloxy)butanoyl)oxy)-2-(((((1-ethylpiperidin-4-yl)oxy)carbonyl)oxy)methyl)propyl octadeca-9,12-dienoate]"
8,83.3%,"CCCCC/C=C\C/C=C\CCCCCCCC(=O)OCC(COC(=O)CCCCCCCCC(=O)OCCCCCCCC)COC(=O)C1(C)CCN(C)C1 (centres unmarked) [Example 56, 1-(3-((1,3-dimethylpyrrolidine-3-carbonyl)oxy)-2-(((9Z,12Z)-octadeca-9,12-dienoyloxy)methyl)propyl) 10-octyl decanedioate]"
